The text below walks through data of patent publication US20060088545A1, “Use of inhibitors of the protease of the human immunodeficiency virus (hiv) to block cell migration and/or invasion, tissue infiltration and oedema for the therary of diseases associated therewith” (priority 2001, published 2006).

For the series, the system named is angiogenesis induced by bFGF or VEGF in the chorioallantoic membrane. Here is the method: CAM assays were performed with 1 mm^3 sterilized gelatin sponges (Gelfoam; Upjohn Co, Kalamazoo, Mich.) adsorbed with bFGF or VEGF (1 μg or 100 ng, respectively) in 5 μl of PBS, and with buffer, HIV-PI (10 μM) or taxol (250 nM) (Bristol-Myers Squibb Co., Princeton, N.J.) as described (Ribatti et al, Int. J. Dev. Biol., 1996). CAM were examined daily until day 12 under an Olympus SZX9 stereomicroscope. Images (1024×1024 pixels) were captured at a distance of 2 mm from the edge of the sponge using a cooled digital CCD Hamamatsu ORCA camera (Hamamatsu Photonics Italia, Arese, Italy). Vessel number was quantified with the ImageProPlus 4.0 imaging software (Media Cybernetics, Silver Spring, Md.) in 3 randomly selected areas per egg ([…]).
Results are expressed as the average number of vessels/mm^2±SD from the indicated number of CAM per experimental condition.

`CC(=O)O[C@H]1C(=O)[C@@]2(C)[C@H]([C@H](OC(=O)c3ccccc3)[C@]3(O)C[C@H](OC(=O)[C@H](O)[C@@H](NC(=O)c4ccccc4)c4ccccc4)C(C)=C1C3(C)C)[C@]1(OC(C)=O)CO[C@@H]1C[C@@H]2O` [Taxol, taxol]: the “Average vessel (number/mm^2 ± SD)” value (bFGF 1 μg, HIV-PI 10 μM, taxol 250 nM) was 7.71 ± 1.63 number/mm^2. In addition, under “drug administered alone”, the “basal CAM vascularization” value was “did not affect”. For the same compound, for the setting “in vivo”, the “toxicity in CAM” value is “not associated with toxicity”.
